Article PMC11592675, “Förster Resonance Energy Transfer Measurements in Living Bacteria for Interaction Studies of BamA with BamD and Inhibitor Identification” (Cells, 2024)
Several values for one entry are separate records, joined by “and”; a condition that tells them apart may be missing. Equal entries are not always repeated. Entries after “also recorded” stand apart in the source; their conditions may differ.

What was measured:
BamA–BamD interaction = experiment: FRET-based determination of apparent affinity of BamA, BamD and their variants / FRET pairs in living E. coli cells; assay type: cell-based; conditions: BamA-mNeonGreen–BamD-mScarlet-I, n = 5 biological replicates (Figure 3c)
Source text: E. coli Stellar (F−, endA1, supE44, thi-1, recA1, relA1, gyrA96, phoA, Φ80d lacZΔ M15, Δ(lacZYA-argF) U169, Δ(mrr-hsdRMS-mcrBC), ΔmcrA, λ−) was used for plasmid construction. E. coli BL21 (B, F^−, gal, dcm, Ion, hsdSB(rB^− mB^−), [malB^+]K-12(λ^S)) was used for expression of all fusion proteins and subsequent flow cytometric analysis. Plasmids were constructed by ligation free cloning using the InFusion™ cloning kit (Clonetech, San Jose, CA, USA) according to the manufacturer’s instructions, based on plasmid backbones described earlier. Details on the determinants and the construction of each of the used plasmids is given in the Supplementary Information (Supplementary Table S1 and Supplementary Text S1). Oligonucleotides used in their constructions are listed in Supplementary Table S2. Single-point mutations were introduced with the InFusion™ cloning kit. Oligonucleotides used are listed in Supplementary Table S2.
(§1) At the start of each experiment, E. coli BL21 cells were transformed with the corresponding plasmids, spread onto lysogeny broth-miller (LB)-agar plates with 50 µg/mL kanamycin (≥750 I.U./mg) or carbenicillin (purity: ≥88%) and grown over night. It turned out to be crucial to use freshly transformed cells for each experiment. Keeping the cells on agar plates for more than two days or cryoconservation of the cells led to an increase in the variability of the determined parameters Ka^app., z and Fmax. The following day, after transformation of the cells, 1 mL of LB medium with 50 µg/mL of the corresponding antibiotic in a 48-well plate was inoculated with a single colony and cultivated overnight (16 h) at 37 °C and 200 rpm. For protein production, M9 mineral medium was used, in which glucose was substituted by 1% (m/m) glycerol (purity: ≥99%) as the carbon source. A quantity of 200 µL of M9 medium in a 96-well plate was inoculated with 2 µL of the overnight culture and cultivated at 28 °C and 200 rpm for 6 h. Then, gene expression was induced with 1 mM L-rhamnose (purity: ≥98%), and afterwards an additional 2 h of cultivation with 0.2% (m/V) arabinose (purity: ≥99%). Cells that carried a plasmid that only contained one promotor were only treated with the corresponding inductor. Following induction of gene expression, cells were cultivated for an additional 16 h at 28 °C and 200 rpm. Cells were subsequently washed with PBS three times and then directly analyzed by flow cytometry.
(§2) A FACS Aria III flow cytometer (BD Bioscience, Franklin Lages, NJ, USA) with a 70 microns nozzle was used to analyze all cells. A three-channel method was used to measure the donor channel (mNeonGreeen), the acceptor channel (mScarlet-I) and the FRET channel. To measure the mNeonGreen fluorescence, an excitation wavelength of 488 nm and emission wavelength filters of 530/30 nm (band-pass) and 502 nm (long-pass) were used. mScarlet-I fluorescence was excited at 561 nm and measured with emission wavelength filters of 610/20 nm (band-pass) and 600 nm (long-pass). The FRET channel was measured with an excitation wavelength of 488 nm and emission filters of 610/20 nm (band-pass) and 600 nm (long-pass). A maximum of 10,000 cells per second were analyzed. FACSDiva™ Software (BD Bioscience, Franklin Lages, NJ, USA, version 8.0) was used for gating data analysis. For cells only expressing one fluorophore, 50,000 cells per sample were analyzed. […] A total of 50,000 cells inside the Q2 gate were analyzed. Examples are shown in Supplementary Figure S2. Cells at the edge of the plot were excluded during calculation of DFRET values and relative donor/acceptor concentrations.
Data points of all cells inside the analysis gate (Q2), as described in 2.4, were exported as FCS files using FACSDiva™ Software (BD Bioscience, Franklin Lages, NJ, USA, version 8.0). A custom Python program employing the FlowKit was subsequently used to convert the FCS formatted data into tab-delimited txt format. […]

clinical isolates = conditions: several clinical isolates; cited from earlier work
Source text: (§3) Resistance against known antibiotics is progressively spreading. Therefore, new antibacterial entities are urgently needed. […] The β-barrel assembly ...

BamA = conditions: cited from earlier work
Source text: Resistance against known antibiotics is progressively spreading. Therefore, new antibacterial entities are urgently needed. According to the WHO, new antibiotics against gram-negative bacteria are in particular need. Common mechanisms of antibiotic resistance in gram-negative bacteria include changes in membrane and cell-wall permeability, biofilm formation, the production of efflux pumps and beta-lactamases, as well as mutation of typical targets. […] The β-barrel assembly ...

[1] = biological target: mNeonGreen-BamA (N-terminal fusion of mNeonGreen to BamA) (E. coli) (UniProt P0A940); experiment: FRET or BRET; flow cytometry (three channels) of living E. coli BL21 co-expressing the mNeonGreen (donor) and mScarlet-I (acceptor) fusions from one plasmid; cells washed with PBS; binding model (law of mass action) fitted to DFRET and relative concentrations with Ka app, z and Fmax all as free parameters; apparent; five replicates on each of three days
[2] = biological target: BamA-mNeonGreen (C-terminal fusion of mNeonGreen to BamA) (E. coli) (UniProt P0A940); experiment: as above
outer membrane = conditions: cited from earlier work
Source text: Resistance against known antibiotics is progressively spreading. Therefore, new antibacterial entities are urgently needed. […] The β-barrel assembly ... || The interaction between BamA and BamD is essential for the correct function of the BAM complex. BamE has been reported to stabilize the interaction between BamA and BamD [29]. In this work, BamE was not overexpressed alongside the fluorophore-labeled BamA and BamD fusion proteins. It is therefore unclear to what extent chromosomal-encoded BamE stabilized the complex between fluorophore-labelled BamA and BamD. It is also possible that the interaction measured between BamA and BamD was not affected by BamE at all, due to the low amount of BamE present in comparison to the plas ...

Pseudomonas aeruginosa = conditions: cited from earlier work
Source text: Mori et al. identified a peptide sequence (FIRL) that was highly conserved across BamD homologues in a wide variety of gram-negative bacteria. […] When the peptide was identified by Mori et al., no crystal structure of the BAM complex was available. When we located the amino acids of the FIRL peptide in the crystal structure of BamD, it turned out that only two of the four amino acids, R97 and L98, appeared to interact with BamA at site 2 (Figure 3c). The sidec ... || The interaction between BamA and BamD is essential for the correct function of the BAM complex. BamE has been reported to stabilize the interaction between BamA and BamD [29]. In this work, BamE was not overexpressed alongside the fluorophore-labeled BamA and BamD fusion proteins. It is therefore unclear to what extent chromosomal-encoded BamE stabilized the complex between fluorophore-labelled BamA and BamD. It is also possible that the interaction measured between BamA and BamD was not affected by BamE at all, due to the low amount of BamE present in comparison to the plas ...

[3] = system: interaction between BamA and BamD; conditions: yeast two hybrid high throughput screening; cited from earlier work
Source text: as §3

gram-negative bacteria = conditions: in vitro; cited from earlier work
Source text: as §3

[4] = M9 medium or PBS; not soluble at concentrations above 1 mM
Protocol: Peptides (RFIRLN and […]) were synthesized by Genicbio with a purity of >95%. For treatment with the peptides, cells were grown as described above. […] Cells not treated with the peptide were also incubated in water for 3 h and used as a control for all experiments involving the peptides.

[5] = system: interaction between BamA and BamD (BamA-mNeonGreen and BamD-mScarlet-I); experiment: FRET-based BamA–BamD interaction assay in living E. coli cells (flow cytometry), peptide treatment; assay type: cell-based; conditions: for Ka^app. of the BamA–BamD interaction after peptide treatment: cells incubated 3 h in water, z and Fmax kept constant, n = 5 biological replicates, untreated control in the RFIRLN experiment Ka^app. = 3.08 × 10^−4; for inhibition of the interaction between BamA and BamD (in words): living bacterial cells, 500 µM and 2.5 mM peptide, 3 h in water
Protocol: as §1, §2
Data points of all cells inside the analysis gate (Q2), as described in 2.4, were exported as FCS files using FACSDiva™ Software (BD Bioscience, Franklin Lages, NJ, USA, version 8.0). A custom Python program employing the FlowKit was subsequently used to convert the FCS formatted data into tab-delimited txt format.
Calculation of the DFRET and calculation of the relative concentration of the acceptor and donor from the flow cytometric data were performed as described by Hochreiter et al.. Cells with an RFU ≥ 250,000 were excluded from further analysis. Fitting of a binding model based on the law of mass actions to the data was also performed as described by Hochreiter et al.. The binding model used here (Equation (1)) fits the affinity (Ka^app), the stoichiometry (z) and the maximum FRET (Fmax) of a complex. To do so, the relative donor and acceptor concentration, as well as the DFRET, of a large number of cells with different expression levels has to be known. All other equations used for the calculations are described in Supplementary Text S1 for clarity. The FRET-efficiency of the donor- acceptor tandem, needed for the calculations, was determined by spectral unmixing according to Alexeeva et al. to be 0.43 [42]. […]

bacterial growth = experiment: inhibition of bacterial growth by the peptides; assay type: cell-based, E. coli; conditions: up to a concentration of 2.5 mM
[6] = interaction site 1 variants, z and Fmax constant
[7] = interaction site 2 variants, z = 1, Fmax = 0.36 constant

Compound: BamD^Y184A: BamD variant
- Ka^app. (BamA–BamD interaction; [6]): 5.27 × 10^−5

Compound: BamD^L98A: BamD variant
- Ka^app. (BamA–BamD interaction; [7]): 6.58 × 10^−5

Compound: BamD^R97A: BamD variant
- Ka^app. (BamA–BamD interaction; [7]): 6.23 × 10^−5

Compound: V181A: BamD variant
- Ka^app. (BamA–BamD interaction; [6]): 6.66 × 10^−5

Compound: darobactin
- antimicrobial activity (clinical isolates): antimicrobial activity against several clinical isolates
- effect on insertion of BamA client proteins into the outer membrane (BamA): prevents the insertion of BamA client proteins into the outer membrane

Compound: BamD-mScarlet-I (C-terminal fusion of mScarlet-I to BamD) (from UniProt P0AC02 20-245) (natural protein)
- stoichiometry N [1]: 0.7 and 1.1
- stoichiometry N [2]: 1.3 and 1.6 and 1.2

Compound: BamD^E187A: BamD variant
- Ka^app. (BamA–BamD interaction; [6]): 7.82 × 10^−5

Compound: BamD^Y185A: BamD variant, Y185 mutated to alanine
- Ka^app. (BamA–BamD interaction; [6]): 6.22 × 10^−5

Compound: FIRL [peptide derived from BamD, Mori et al]
- effect on outer membrane integrity / membrane permeability (outer membrane): cause membrane permeability in treated cells; also recorded: shown to interfere with outer membrane integrity
- bacteriostatic or bactericidal effects (Pseudomonas aeruginosa): did not show any bacteriostatic or bactericidal effects
- potentiation of antibiotics (Pseudomonas aeruginosa): potentiated the effect of antibiotics; also recorded: potentiate the activity of antibiotics

Compound: BamD^R94A: BamD variant
- Ka^app. (BamA–BamD interaction; [7]): 5.47 × 10^−5

Compound: E183A: BamD variant
- Ka^app. (BamA–BamD interaction; [6]): 7.2 × 10^−5

Compound: COC(=O)c1c(NC(=O)c2ccc([N+](=O)[O-])o2)sc2c1CCN(C(C)C)C2 [IMB-H4]
- permeabilization of the OM (outer membrane): shown to permeabilize the OM
- inhibition of the interaction between BamA and BamD [3]: shown to inhibit the interaction between BamA and BamD
- antibacterial activity (gram-negative bacteria): showed antibacterial activity in vitro
- binding to BamA (BamA; no specific interaction site known): binds to BamA

Compound: BamD^Y184F: BamD variant
- Ka^app. (BamA–BamD interaction; [6]): 6.22 × 10^−5

Compound: BamD^N99A: BamD variant
- Ka^app. (BamA–BamD interaction; [7]): 6.57 × 10^−5

Compound: RFIRLN [variant of the FIRL peptide with extra N-terminal arginine and C-terminal asparagine; derived from BamD]
- solubility [4]: ≤ 1 mM
- Ka^app. of the BamA–BamD interaction after peptide treatment ([5]; 500 µM peptide): 1.95 × 10^−4
- Ka^app. of the BamA–BamD interaction after peptide treatment ([5]; 2.5 mM peptide): 7.48 × 10^−5
- inhibition of the interaction between BamA and BamD (in words) [5]: inhibit the interaction between BamA and BamD in a dose-dependent manner in the upper micromolar range; also recorded: a clear dose-dependent effect was observed; also recorded: shown to inhibit binding of BamA to BamD in living cells
- inhibition of bacterial growth (bacterial growth): no inhibition of bacterial growth was detected up to a concentration of 2.5 mM

Compound: VAEYYTER
- Ka^app. of the BamA–BamD interaction after peptide treatment ([5]; 500 µM peptide): 1.75 × 10^−4
- Ka^app. of the BamA–BamD interaction after peptide treatment ([5]; 2.5 mM peptide): 1.03 × 10^−4
- inhibition of the interaction between BamA and BamD (in words) [5]: inhibit the interaction between BamA and BamD in a dose-dependent manner in the upper micromolar range; also recorded: a clear dose-dependent effect was observed; also recorded: able to disrupt the binding of BamD to BamA in living cells in high micromolar concentrations
- inhibition of bacterial growth (bacterial growth): no inhibition of bacterial growth was detected up to a concentration of 2.5 mM
